From paper PMC9973354 (mBio, 2022)
Starred links: 1 amine or outer side, 2 acyl side, 3 side chain; linkers in the order of their positions; H or OH if unused. Positions of bridges follow the written chain, without caps; N, C: chain ends. Non-standard residues stand in square brackets, D forms with d. Residues, ends and D or L forms follow the SMILES beside them. ξ: configuration not given here. X1 = O=C([C@@H]1CCN=C2C(N[*:1])=Cc3cc(O)c(O)cc3N21)[*:2]; ξOrn(N(OH)CHO) = NC(CCCN(O)C=O)C(=O)O; Suc = O=C(CCC(=O)[*:2])[*:1]; ξK = NCCCCC(N)C(=O)O; ξS = NC(CO)C(=O)O

Experiments:
[1] = test system: PA14 ΔfpvA ΔfpvB pHERD20T-fpvA; experiment: Checkerboard assay TS and siderophores, FpvA expressed; type: cell-based, Pseudomonas aeruginosa; conditions: 10:90 + 2% arabinose
Text: (§1) We investigated this hypothesis by treating the ΔfpvA ΔfpvB mutant complemented with fpvA or fpvB with TS and pyoverdine-Fe^3+. If pyoverdine competes with TS for the same binding site in the transporter, a reduction in TS susceptibility would be expected, as competition would decrease entry of the antibiotic into the cell. TS susceptibility decreased >8-fold with increasing concentrations of pyoverdine-Fe^3+ when FpvA was expressed (see Fig. S2A in the supplemental material).
(§2) Supplementary file : FIG S2 Checkerboard assays of the PA14 ΔfpvA ΔfpvB strain complemented with fpvA and fpvB in trans with TS and siderophores. […] Checkerboards of the PA14 ΔfpvA ΔfpvB pHERD20T-fpvB strain with TS and enterobactin (G), ferrioxamine E (H), and arthrobactin (I). Results are averaged from three independent biological replicates. Cells in the assay were grown in 10:90 + 2% arabinose. Download FIG S2, EPS file, 2.2 MB.
Checkerboards (8 rows by 8 columns) were conducted as previously described in a 96-well plate (Nunc) ([13], [14]). TS at 75× the final concentration dissolved in DMSO was added in columns from bottom to top in increasing concentrations. Siderophores at 75× the final concentration dissolved in DSMO were added from in rows from left to right in increasing concentrations. Four columns were used for vehicle controls (DMSO) and sterile controls. […] Plates were sealed to prevent evaporation and incubated at 37°C overnight in a shaking incubator (200 rpm). The next day, the OD600 was determined with a plate reader (Thermo Scientific) and normalized to percent of growth of the vehicle control (DMSO) after subtracting the OD600 from blank media.

[2] = biological target: T1, FpvA T660C (Pseudomonas aeruginosa, UniProt P48632, T660C); experiment: Whole-cell fluorescence quenching, FpvA T660C; type: binding; conditions: cells expressing FpvA T660C
T1 construct: expressed in transfected cells; host or cells: P. aeruginosa PA14 ΔfpvA ΔfpvB, plasmid pHERD20T-fpvA T660C, arabinose-induced
Text: (§3) To determine the affinity of the siderophores for FpvA and FpvB, we adapted the method from Chakravorty et al. to generate a whole-cell sensor where fluorescence quenching serves as an indicator of ligand interaction ([31]). Siderophore binding triggers conformational changes at the extracellular loops of the TBDT (Fig. 3A). Cys substitutions were introduced at the loops and labeled with a fluorescent maleimide dye. When a ligand binds the transporter, the loops fold inward toward the lumen of the barrel, and changes in the chemical environment surrounding the fluorophore lead to quenching ([31], [32]). Fluorescence recovery occurs once the siderophore is taken up and the loop returns to its original conformation.
Cells were cultured overnight in LB with carbenicillin (200 μg/mL) at 37°C with shaking at 200 rpm. […] Cells were harvested by centrifugation for 5 min and 6,000 × g and resuspended in sterile 1× phosphate-buffered saline (PBS) (pH 7.4); 1× PBS was made from a 10× stock (80 g NaCl, 2 g KCl, 26.8 g Na2 HPO4-7H2O, 2.4 g KH2PO4 in 1 L of deionized H2O) with 10 μM Alexa Fluor 594 C5 maleimide for microscopy or fluorescein-5-maleimide for fluorescence quenching and recovery assays and incubated in the dark at room temperature for 30 min on a shaking incubator at 37°C (200 rpm). […]

[3] = biological target: T2, FpvB R648C (Pseudomonas aeruginosa, UniProt A0A0H2ZFZ5, R648C); experiment: Whole-cell fluorescence quenching, FpvB R648C in ΔfpvA ΔfpvB; type: binding
T2 sequence (A0A0H2ZFZ5 23-802 R648C): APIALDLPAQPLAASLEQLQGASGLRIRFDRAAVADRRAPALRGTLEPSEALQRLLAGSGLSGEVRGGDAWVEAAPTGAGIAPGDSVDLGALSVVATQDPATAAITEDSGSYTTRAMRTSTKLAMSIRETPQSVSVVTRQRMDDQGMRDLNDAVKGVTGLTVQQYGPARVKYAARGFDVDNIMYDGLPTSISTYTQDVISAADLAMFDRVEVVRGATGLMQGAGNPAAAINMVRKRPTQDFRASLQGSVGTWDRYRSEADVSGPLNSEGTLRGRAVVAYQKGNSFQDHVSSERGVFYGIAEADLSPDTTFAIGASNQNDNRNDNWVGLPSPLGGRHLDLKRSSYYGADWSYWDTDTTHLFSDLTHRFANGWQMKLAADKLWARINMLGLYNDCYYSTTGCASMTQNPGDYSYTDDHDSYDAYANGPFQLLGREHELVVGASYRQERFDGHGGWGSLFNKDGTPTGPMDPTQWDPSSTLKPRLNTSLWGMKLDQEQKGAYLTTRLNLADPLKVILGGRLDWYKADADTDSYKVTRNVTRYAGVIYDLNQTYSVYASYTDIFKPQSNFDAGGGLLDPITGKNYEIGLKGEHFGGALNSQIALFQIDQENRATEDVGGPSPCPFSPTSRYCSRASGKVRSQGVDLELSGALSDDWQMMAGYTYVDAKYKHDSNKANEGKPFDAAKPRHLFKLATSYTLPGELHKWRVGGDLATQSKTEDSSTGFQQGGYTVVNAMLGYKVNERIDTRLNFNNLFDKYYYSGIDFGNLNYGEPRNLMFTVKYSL
Text: as §3
Cells were cultured overnight in LB with carbenicillin (200 μg/mL) at 37°C with shaking at 200 rpm. Cells were subcultured (1:200 dilution) in 10:90 plus 2% arabinose for 4 h without carbenicillin at 37°C with shaking at 200 rpm. […] Excess dye was quenched with 1 mM dithiothreitol (DTT) (Sigma) to stop the reaction. Cells were washed 3× with PBS. For fluorescence recovery assays, cells were incubated with 1× PBS plus 0.4% glucose at 37°C with shaking at 200 rpm. Glucose was prepared as a 20% stock (wt/vol) in 1× PBS and filter sterilized. Cells were spun down and washed 3× with 1× PBS and resuspended in 1× PBS for quenching assays and 1× PBS plus 0.4% glucose for fluorescence recovery assays.
(§4) For fluorescence quenching and recovery assays, cells were diluted to an OD600 of 0.1 for both types of assays, and 148 μL was added into wells of a 96-well black plate (Corning). Fluorescence was recorded for 5 min at 1-min intervals at 37°C (BioTek Neo; excitation, 494 nm; emission, 520 nm). After 5 min, 2 μL of each serial dilution for ferrioxamine-Fe^3+, ferrichrome-Fe^3+, and pyoverdine-Fe^3+ or DMSO for vehicle controls was added to each well. Fluorescence was recorded immediately for quenching assays and for 1 h at 1-min intervals for fluorescence recovery assays. Background fluorescence was subtracted from all fluorescence readings and 1-F/F0 was used to calculate the degree of quenching, where F0 is the initial fluorescence. Kd was calculated using GraphPad Prism using a one-site specific binding model or a two-site model. For fluorescence recovery assays, background was subtracted from all fluorescence readings and F/F0 expressed as a percent of control was plotted versus time.

[4] = biological target: T2, FpvB R648C; experiment: Whole-cell fluorescence quenching, FpvB R648C in quadruple mutant; type: binding
Method: (§5) Quenching assays with the two xenosiderophores were repeated for the quadruple TBDT mutant expressing WT FpvB, FpvB R191A R648C, or W347V R648C.
(§6) Cells were cultured overnight in LB with carbenicillin (200 μg/mL) at 37°C with shaking at 200 rpm. Cells were subcultured (1:200 dilution) in 10:90 plus 2% arabinose for 4 h without carbenicillin at 37°C with shaking at 200 rpm. Cells were harvested by centrifugation for 5 min and 6,000 × g and resuspended in sterile 1× phosphate-buffered saline (PBS) (pH 7.4); 1× PBS was made from a 10× stock (80 g NaCl, 2 g KCl, 26.8 g Na2 HPO4-7H2O, 2.4 g KH2PO4 in 1 L of deionized H2O) with 10 μM Alexa Fluor 594 C5 maleimide for microscopy or fluorescein-5-maleimide for fluorescence quenching and recovery assays and incubated in the dark at room temperature for 30 min on a shaking incubator at 37°C (200 rpm). Excess dye was quenched with 1 mM dithiothreitol (DTT) (Sigma) to stop the reaction. Cells were washed 3× with PBS. For fluorescence recovery assays, cells were incubated with 1× PBS plus 0.4% glucose at 37°C with shaking at 200 rpm. Glucose was prepared as a 20% stock (wt/vol) in 1× PBS and filter sterilized. Cells were spun down and washed 3× with 1× PBS and resuspended in 1× PBS for quenching assays and 1× PBS plus 0.4% glucose for fluorescence recovery assays.
as §4

[5] = biological target: T3, FpvB R191A R648C (Pseudomonas aeruginosa, UniProt A0A0H2ZFZ5, R191A/R648C); experiment: Whole-cell fluorescence quenching, FpvB R191A R648C; type: binding
T3 sequence (A0A0H2ZFZ5 23-802 R191A/R648C): T2 sequence (A0A0H2ZFZ5 23-802 R648C)
Method: as §5, §6, §4

[6] = biological target: T4, FpvB W347V R648C (Pseudomonas aeruginosa, UniProt A0A0H2ZFZ5, R648C/W347V); experiment: Whole-cell fluorescence quenching, FpvB W347V R648C; type: binding
T4 sequence (A0A0H2ZFZ5 23-802 W347V/R648C): T2 sequence (A0A0H2ZFZ5 23-802 R648C)
Method: as §5, §6, §4

[7] = test system: PA14 ΔfpvA ΔfpvB pHERD20T-fpvB; experiment: Checkerboard assay TS and siderophores, FpvB expressed; type: cell-based, Pseudomonas aeruginosa; conditions: 10:90 + 2% arabinose
Text: as §1, §2
Checkerboards (8 rows by 8 columns) were conducted as previously described in a 96-well plate (Nunc) ([13], [14]). TS at 75× the final concentration dissolved in DMSO was added in columns from bottom to top in increasing concentrations. […] The next day, the OD600 was determined with a plate reader (Thermo Scientific) and normalized to percent of growth of the vehicle control (DMSO) after subtracting the OD600 from blank media.

[8] = biological target: T2, FpvB R648C; experiment: Fluorescence recovery assay (siderophore uptake by FpvB); type: cell-based; conditions: siderophore at 1/2 Kd (1/2 Kd2 for ferrioxamine B), recorded for 1 h
Method: Cells were equilibrated for 5 min prior to introduction of the siderophores. Fluorescence was recorded every min for 1 h. Carbonyl cyanide m-chlorophenylhydrazone (CCCP) was used as a control to inhibit fluorescence recovery through dissipation of the proton motive force (PMF) ([2], [3]), which is required for uptake.
as §6, with “Glucose was prepared as a 20% stock (wt/vol) in 1× PBS and filter sterilized.” left out
as §4, with “After 5 min, 2 μL of each serial dilution for ferrioxamine-Fe^3+, ferrichrome-Fe^3+, and pyoverdine-Fe^3+ or DMSO for vehicle controls was added to each well.” left out, “For fluorescence recovery assays, background was subtracted from all fluorescence readings and F/F0 expressed as a percent of control was plotted versus time.” left out

[9] = FpvB R648C in quadruple mutant, two-site model

T1 sequence (P48632 44-815 T660C): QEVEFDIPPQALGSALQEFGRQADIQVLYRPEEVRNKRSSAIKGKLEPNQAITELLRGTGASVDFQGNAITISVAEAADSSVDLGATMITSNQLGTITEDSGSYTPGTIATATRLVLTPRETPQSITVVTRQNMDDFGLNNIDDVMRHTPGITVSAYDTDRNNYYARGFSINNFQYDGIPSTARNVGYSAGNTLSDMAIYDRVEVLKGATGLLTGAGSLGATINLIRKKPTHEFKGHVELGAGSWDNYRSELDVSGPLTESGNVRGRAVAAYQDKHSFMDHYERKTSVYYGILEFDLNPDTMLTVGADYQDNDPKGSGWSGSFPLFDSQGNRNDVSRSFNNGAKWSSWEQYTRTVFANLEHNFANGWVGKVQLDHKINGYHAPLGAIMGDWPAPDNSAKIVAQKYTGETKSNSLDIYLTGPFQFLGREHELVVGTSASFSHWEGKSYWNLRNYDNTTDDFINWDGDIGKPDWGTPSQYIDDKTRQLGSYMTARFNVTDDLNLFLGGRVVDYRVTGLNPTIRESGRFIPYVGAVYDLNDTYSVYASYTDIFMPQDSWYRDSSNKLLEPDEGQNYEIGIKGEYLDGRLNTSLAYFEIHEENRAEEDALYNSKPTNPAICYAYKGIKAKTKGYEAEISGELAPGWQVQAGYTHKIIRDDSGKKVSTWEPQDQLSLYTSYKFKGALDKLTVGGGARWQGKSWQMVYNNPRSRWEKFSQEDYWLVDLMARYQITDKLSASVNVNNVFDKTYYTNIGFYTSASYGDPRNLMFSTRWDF

Compound: O=C(N[C@H]1COC(=O)[C@@H](NC(=O)c2cccc(O)c2O)COC(=O)[C@@H](NC(=O)c2cccc(O)c2O)COC1=O)c1cccc(O)c1O [enterobactin]
- effect of siderophore on TS susceptibility [1]: None of those siderophores reduced TS susceptibility

Compound: CC(=O)N([O-])CCCCCNC(=O)CCC(=O)N([O-])CCCCCNC(=O)CCC(=O)N([O-])CCCCCN.[Fe+3] [ferrioxamine B-Fe^3+]
- fluorescence quenching [2]: No quenching
- Kd1 ([3]; FpvB R648C in ΔfpvA ΔfpvB, two-site model, higher-affinity site): 1.0 × 10^2 ± 50 ng/mL
- Kd2 ([3]; FpvB R648C in ΔfpvA ΔfpvB, two-site model, lower-affinity site): 270000 ± 47000 ng/mL
- Kd1 [4, 9]: 1.0x10^2 ± 59 ng/mL
- Kd2 [4, 9]: 370000 ± 95000 ng/mL
- Kd ([5]; FpvB R191A R648C, one-site model): 300 ± 43 mg/L
- Kd ([6]; FpvB W347V R648C, one-site model): 490 ± 68 mg/L

Compound: CC(=O)N(O)CCCCCNC(=O)CC(O)(CC(=O)NCCCCCN(O)C(C)=O)C(=O)O [arthrobactin]
- effect of siderophore on TS susceptibility [1]: None of those siderophores reduced TS susceptibility

Compound: NCCCCC(NC(=O)C(CO)NC(=O)[C@@H]1CCN=C2C(NC(=O)CCC(=O)O)=Cc3cc(O)c(O)cc3N21)C(=O)NCC(=O)NC(CCCN(O)C=O)C(=O)NC1CCCCNC(=O)C(CO)NC(=O)C(CCCN(O)C=O)NC1=O.[Fe+3] (stereo partly shown) [pyoverdine-Fe^3+] (Suc-[X1][ξS][ξK]G[ξOrn(N(OH)CHO)][ξK][ξOrn(N(OH)CHO)][ξS]; lactam 6-C)
- effect of siderophore on TS susceptibility [7]: did not impact TS susceptibility
- Kd for FpvB relative to FpvA ([3]; higher for FpvB): 200 fold
- fluorescence recovery [8]: No recovery

Compound: ferrichrome-Fe^3+
- fluorescence quenching [2]: ~ 20%
- Kd ([4]; FpvB R648C in ΔfpvA ΔfpvB ΔfiuA ΔfoxA): 0.0085 ± 0.0008 mg/L
- increase of Kd by the mutation ([5]; R191A versus FpvB R648C): 76 fold
- increase of Kd by the mutation ([6]; W347V versus FpvB R648C): > 76 fold
